Tests used:
[1] = test system: total aerobic viable counts; assay: Efficacy of oxidizing biocides in water taken from a paper mill (thick stock of pulp slurry); format: cell-based; details: 15 mg/l as Cl2; 30 minutes
Experimental: Efficacy of Oxidizing Biocides in Water Taken from a Paper Mill (Thick Stock of Pulp Slurry)
Microorganisms were incubated at 37° C. (total aerobic viable counts).
Concentration of stock solution: 0.1% as Cl2.

[2] = test system: anaer. MOs; assay: Efficacy in domestic waste containing a high concentration of amines: anaerobic MOs; format: cell-based; details: 60 ppm; contact time 10 minutes; N as NH3 50mg/l; pH 6.10
Experimental: (§1) Efficacy of a Series of Biocides in Domestic Waste Containing a High Concentration of Amines
(§2) Incubation temperature: 27° C.
(§3) Stock concentration: 0.2%

[3] = test system: fungi; assay: Efficacy in domestic waste containing a high concentration of amines: fungi; format: cell-based; details: 60 ppm; contact time 10 minutes; N as NH3 50mg/l; pH 6.10
Experimental: as §1, §2, §3

[4] = Residue as Cl2 in domestic waste containing a high concentration of amines; format: physicochemical; details: 60 ppm
Experimental: as §1, §2, §3

[5] = test system: aerob. MOs; assay: Efficacy in domestic waste containing a high concentration of amines: aerobic MOs; format: cell-based; details: 60 ppm; contact time 10 minutes; N as NH3 50mg/l; pH 6.10
Experimental: as §1, §2, §3

[6] = test system: Pseudomonas sp.; assay: Efficacy of biocides in the presence of anti-scale and corrosion inhibiting treatment (CWC); format: cell-based; details: dose 4 mg/l; pH 9.0; contact time 6 hours
Excerpt: Efficacy of Biocides in the Presence of Anti-Scale and Corrosion Inhibiting Treatment (CWC)
Stock concentration: 0.5% as Cl2
Efficacy against pseudomonas sp.

[7] = test system: MOs in starch sizing mixture; assay: Efficacy of oxidizing and non-oxidizing biocides in a starch sizing mixture (paper industry); format: cell-based; details: 30 ppm active ingredient, 60° C.; for Surviving MOs after time (hours): 4: 4 hours; for Surviving MOs after time (hours): 28: 28 hours; for Surviving MOs after time (hours): 48: 48 hours; for Surviving MOs after time (hours): 72: 72 hours
Experimental: Efficacy of Oxidizing and Non-Oxidizing Biocides is a Starch Sizing Mixture (Paper Industry)
Efficacy was measured at 60° C.
NH4Br+NaOCl: stock concentration 0.1%.
Dosage: 30 ppm active ingredient.
Incubation temperature 60° C.

[8] = test system: biofilm, slime and algae growth; assay: Field experiment, cooling tower 2 (corn processing plant); details: BCDMH 1.50-2.26 kg/day daily
Experimental: • Corn processing plant. • Contained volume: 20 m^3 • Circulation rate: 300 m^3/h • pH: 7.5-8.0 • Water temperature: 36° C.-57° C.
This tower was treated with BCDMH (1.50-2.26 kg/day) daily. Due to a very high organic load in the water, growth of biofilm was very fast.

[9] = test system: biofouling and growth of algae; assay: Field experiment, cooling tower 1
Experimental: • Cooling tower; contained volume 1000 m^3 • Circulation rate 500 m^3/h • Scale and corrosion inhibitor: CWC: 100 mg/l
The tower was controlled on low level (0.6-1.2 kg/day) of BCDMH feed. Use of BCDMH was effective as long as make-ups were softened in ion-exchangers.
The system was shock-fed with NH4Br+NaOCl. Overall dosage: 75 liters NaOCl (10%) 12.6 kg NH4Br. The mixture was fed during 1.5 hours.
A slug dose of 25 liters NaOCl (10% as Cl2) (+4.2 kg NH4Br) was then fed to the cooling tower once in two to three days. […] A measurable residue of 0.6-0.4 ppm (as total chlorine) was measured in the water 24 and 48 hours after feeding the mixture.

Structure (SMILES)	Viable counts after time (minutes): 30 [1]	Surviving MOs after 10 minutes anaer. [2]	Surviving MOs after 10 minutes fungi [3]	Residue free as Cl2 after 10 minutes ([4]; free)	Residue (total) as Cl2 after 10 minutes ([4]; total)	Surviving MOs after 10 minutes aerob. [5]	Survivors in CWC (100 mg/l) [6]	Survivors in buffer [6]	Surviving MOs after time (hours): 4 [7]	Surviving MOs after time (hours): 28 [7]	Surviving MOs after time (hours): 48 [7]	Surviving MOs after time (hours): 72 [7]	control of daily grown films [8]	efficacy against heavy slimes covering the cooling tower [8]	prevention of biofouling and growth of algae ([9]; BCDMH 4-6 kg/day, CWC (100 mg/l of phosphonate))	control of the tower ([9]; BCDMH feed 0.6-1.2 kg/day, make-ups softened in ion-exchangers)
N#CC(Br)(Br)C(N)=O [DBNPA]	2 × 10^3 cfu/ml	5 × 10^5 cfu/ml	0 cfu/ml	0 (0)	0 (0)	2 × 10^6 cfu/ml	4 × 10^6	0	3 × 10^4 cfu/ml	2 × 10^5 cfu/ml	2 × 10^5 cfu/ml	1 × 10^5 cfu/ml				
Cn1sccc1=O [MIT]									2 × 10^4 cfu/ml	2 × 10^3 cfu/ml	2 × 10^3 cfu/ml	1 × 10^3 cfu/ml				
CC1(C)C(=O)N(Cl)C(=O)N1Br [BCDMH]							3 × 10^5	0					effective in controlling the daily grown films	not effective against heavy slimes	did not suffice to prevent biofouling and growth of algae	effective

— patent publication US20080003305A1, “PROCESS AND COMPOSITIONS FOR THE DISINFECTION OF WATERS” (BROMINE COMPOUNDS LIMITED, priority 1991, published 2008)
